Experiments:
[1] = target: T1, ATP-dependent translocase ABCB1 (Homo sapiens, UniProt P08183); assay: Negative allosteric modulator activity at P-gp in human LCC6MDR cells overexpressing P-gp assessed as reversal of P-gp mediated paclitaxel resistance activity by measuring relative fold at 1 uM incubated for 5 days by MTS assay; format: cell-based; settings: 120 h, time 5 day
[2] = target: T1, ATP-dependent translocase ABCB1; assay: Negative allosteric modulator activity at P-gp in human LCC6MDR cells assessed as increase in intracellular doxorubicin accumulation using doxorubicin as substrate incubated for 150 mins by microplate reader assay; format: cell-based; settings: 2.5 h
[3] = target: T1, ATP-dependent translocase ABCB1; assay: Binding affinity to human P-glycoprotein expressed in LCC6MDR cells assessed as stabilization of protein by measuring fluorescence at 1 uM incubated for 1 hr by Western blotting analysis; format: cell-based
[4] = target: T1, ATP-dependent translocase ABCB1; assay: Binding affinity to P-glycoprotein in human LCC6MDR cells assessed as stabilization of protein by measuring fluorescence at 1 uM incubated for 1 hr by Western blotting analysis; format: cell-based
[5] = target: T1, ATP-dependent translocase ABCB1; assay: Binding affinity to human P-glycoprotein expressed in LCC6MDR cells assessed as stabilization of protein by measuring fluorescence at 0.1 to 1 uM by Western blotting analysis; format: cell-based; settings: dose 0.1-1 µM
[6] = target: T1, ATP-dependent translocase ABCB1; assay: Displacement of FM-04 from human P-glycoprotein expressed in LCC6MDR cells at 1 uM by competitive binding assay; format: cell-based
[7] = target: T2, ATP-dependent translocase ABCB1 (Mus musculus, UniProt P06795); assay: Binding affinity to mouse P-glycoprotein expressed in Pichia pastoris assessed as stabilization of protein by measuring fluorescence at 1 uM by Western blotting analysis
[8] = target: T2, ATP-dependent translocase ABCB1; assay: Displacement of FM04 from mouse P-glycoprotein expressed in Pichia pastoris at 1 uM by competitive binding assay
[9] = target: T2, ATP-dependent translocase ABCB1; assay: Binding affinity to biotin-labeled mouse P-glycoprotein expressed in Pichia pastoris assessed as stabilization of protein by measuring fluorescence at 100 uM incubated for 2 hr by Streptavidin-HRP blotting assay
[10] = target: T2, ATP-dependent translocase ABCB1; assay: Binding affinity to mouse P-glycoprotein expressed in Pichia pastoris assessed as stabilization of protein by measuring fluorescence at 100 uM incubated for 2 hr by Streptavidin-HRP blotting assay
[11] = target: T2, ATP-dependent translocase ABCB1; assay: Binding affinity to mouse P-glycoprotein expressed in Pichia pastoris assessed as stabilization of protein by measuring fluorescence at 100 uM incubated for 2 hr by Streptavidin-pull down blotting assay
[12] = target: T2, ATP-dependent translocase ABCB1; assay: Binding affinity to mouse P-glycoprotein expressed in Pichia pastoris assessed as stabilization of protein by measuring fluorescence at 1000 uM incubated for 2 hr by Streptavidin-pull down blotting assay

T2 sequence (P06795 whole entry): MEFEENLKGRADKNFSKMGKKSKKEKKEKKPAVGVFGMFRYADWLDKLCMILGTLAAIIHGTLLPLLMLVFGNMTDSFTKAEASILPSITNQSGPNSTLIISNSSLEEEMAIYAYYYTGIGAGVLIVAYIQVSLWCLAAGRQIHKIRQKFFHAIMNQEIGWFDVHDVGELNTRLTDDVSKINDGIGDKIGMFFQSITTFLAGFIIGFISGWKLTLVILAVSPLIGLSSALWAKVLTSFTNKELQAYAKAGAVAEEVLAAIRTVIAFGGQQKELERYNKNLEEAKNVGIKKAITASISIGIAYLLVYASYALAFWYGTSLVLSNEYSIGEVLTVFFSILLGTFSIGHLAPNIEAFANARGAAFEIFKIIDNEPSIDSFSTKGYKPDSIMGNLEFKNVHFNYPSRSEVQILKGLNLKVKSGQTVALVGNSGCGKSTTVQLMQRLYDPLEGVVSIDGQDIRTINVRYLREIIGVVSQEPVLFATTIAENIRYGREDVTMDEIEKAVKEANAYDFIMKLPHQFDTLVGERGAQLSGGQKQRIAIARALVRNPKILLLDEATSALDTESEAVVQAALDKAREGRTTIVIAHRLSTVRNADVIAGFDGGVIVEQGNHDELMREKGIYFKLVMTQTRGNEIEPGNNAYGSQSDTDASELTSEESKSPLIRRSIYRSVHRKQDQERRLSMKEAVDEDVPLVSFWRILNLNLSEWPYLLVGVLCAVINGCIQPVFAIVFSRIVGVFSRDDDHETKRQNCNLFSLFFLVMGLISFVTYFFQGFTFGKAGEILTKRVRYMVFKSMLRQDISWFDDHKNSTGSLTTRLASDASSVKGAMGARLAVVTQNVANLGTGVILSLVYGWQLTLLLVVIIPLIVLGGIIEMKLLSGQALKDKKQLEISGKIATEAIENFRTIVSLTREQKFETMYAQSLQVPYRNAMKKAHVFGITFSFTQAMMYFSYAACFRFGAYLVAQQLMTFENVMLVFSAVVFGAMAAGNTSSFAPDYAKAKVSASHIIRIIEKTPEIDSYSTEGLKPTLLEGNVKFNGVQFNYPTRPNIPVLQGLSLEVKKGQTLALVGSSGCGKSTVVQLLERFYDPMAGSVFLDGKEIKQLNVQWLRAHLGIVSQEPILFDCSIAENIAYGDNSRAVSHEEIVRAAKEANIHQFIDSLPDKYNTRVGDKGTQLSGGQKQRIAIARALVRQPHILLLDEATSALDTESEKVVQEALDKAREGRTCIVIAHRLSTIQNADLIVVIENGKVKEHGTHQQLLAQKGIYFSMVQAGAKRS
T1 sequence (P08183 whole entry): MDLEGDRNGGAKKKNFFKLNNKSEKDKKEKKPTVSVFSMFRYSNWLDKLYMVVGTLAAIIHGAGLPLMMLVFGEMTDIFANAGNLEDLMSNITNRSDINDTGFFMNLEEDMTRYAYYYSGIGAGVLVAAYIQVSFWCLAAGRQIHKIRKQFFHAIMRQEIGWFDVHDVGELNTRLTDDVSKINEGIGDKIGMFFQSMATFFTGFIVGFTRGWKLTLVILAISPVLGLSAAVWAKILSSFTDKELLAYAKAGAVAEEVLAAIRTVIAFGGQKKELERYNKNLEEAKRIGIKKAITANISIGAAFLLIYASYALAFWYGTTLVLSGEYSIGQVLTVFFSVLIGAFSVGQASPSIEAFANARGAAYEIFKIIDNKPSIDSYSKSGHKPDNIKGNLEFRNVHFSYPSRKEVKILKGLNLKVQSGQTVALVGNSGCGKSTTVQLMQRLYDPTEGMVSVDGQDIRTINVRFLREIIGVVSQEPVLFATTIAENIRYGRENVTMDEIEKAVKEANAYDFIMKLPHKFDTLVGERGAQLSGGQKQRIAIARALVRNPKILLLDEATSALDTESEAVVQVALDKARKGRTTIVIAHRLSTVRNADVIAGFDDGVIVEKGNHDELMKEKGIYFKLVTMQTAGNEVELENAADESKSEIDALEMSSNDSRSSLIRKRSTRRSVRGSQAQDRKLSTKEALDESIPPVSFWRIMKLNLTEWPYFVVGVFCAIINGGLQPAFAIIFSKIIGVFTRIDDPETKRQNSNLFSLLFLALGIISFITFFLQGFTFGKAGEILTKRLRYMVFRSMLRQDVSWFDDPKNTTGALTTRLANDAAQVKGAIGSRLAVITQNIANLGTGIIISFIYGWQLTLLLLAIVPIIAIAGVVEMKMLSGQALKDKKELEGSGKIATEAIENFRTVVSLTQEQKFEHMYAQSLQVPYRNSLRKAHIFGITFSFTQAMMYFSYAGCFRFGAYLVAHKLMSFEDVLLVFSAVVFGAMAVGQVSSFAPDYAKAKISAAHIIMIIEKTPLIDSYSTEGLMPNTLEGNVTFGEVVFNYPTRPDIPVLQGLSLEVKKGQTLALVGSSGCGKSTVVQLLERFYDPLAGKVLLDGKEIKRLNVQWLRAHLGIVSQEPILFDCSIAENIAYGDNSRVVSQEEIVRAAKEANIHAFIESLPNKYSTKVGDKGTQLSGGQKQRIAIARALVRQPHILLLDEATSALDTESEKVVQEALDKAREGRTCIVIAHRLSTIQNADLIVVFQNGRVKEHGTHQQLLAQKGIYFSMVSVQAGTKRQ

SMILES	fold change (FC) [1]	Activity [3]	Activity [4]	other results
O=c1cc(-c2ccc(OCCOCCOCCOCCOc3ccc(-c4cc(=O)c5c(O)cc(O)cc5o4)cc3)cc2)oc2cc(O)cc(O)c12	11	–	–	–
O=c1cc(-c2ccc(OCCOCCN(CCOCCOc3ccc(-c4cc(=O)c5ccccc5o4)cc3)Cc3ccccc3)cc2)oc2ccccc12	68	–	–	–
O=c1cc(-c2ccc(OCCOCCOCCOCCOc3ccc(-c4cc(=O)c5ccccc5o4)cc3)cc2)oc2ccccc12	28	–	–	–
O=c1cc(-c2ccc(OCCOCCN(Cc3ccc(C4(C(F)(F)F)N=N4)cc3)Cc3ccc(C4(C(F)(F)F)N=N4)cc3)cc2)oc2ccccc12	0.8	–	–	–
C#CCNc1cc(C)cc2c(=O)cc(-c3ccc(OCCOCCNCc4ccc(C5(C(F)(F)F)N=N5)cc4)cc3)oc12	0.5	Not Active	Not Active	–
C#CCNc1cc(C)cc2c(=O)cc(-c3ccc(OCCOCCN(Cc4ccc(C5(C(F)(F)F)N=N5)cc4)Cc4ccc(C5(C(F)(F)F)N=N5)cc4)cc3)oc12	0.4	–	–	–
O=c1cc(-c2ccc(O)cc2)oc2cc(O)cc(O)c12 [APIGENIN]	1	–	–	–

More lines, main results first:

fold change (FC) [1]	Activity [3]	Activity [4]	SMILES	other results
56.3	–	–	O=c1cc(-c2ccc(OCCOCCNCc3ccc(C4(C(F)(F)F)N=N4)cc3)cc2)oc2ccccc12	Activity [2]: Active
2.3	Not Active	Not Active	C#CCN(CCOCCOc1ccc(-c2cc(=O)c3ccccc3o2)cc1)Cc1ccc(C2(C(F)(F)F)N=N2)cc1	–
92.6	Active	Not Active	C#CCOc1cccc2oc(-c3ccc(OCCOCCNCc4ccc(C5(C(F)(F)F)N=N5)cc4)cc3)cc(=O)c12	Activity [2]: Active; Activity [5]: Dose-Dependent Effect; Activity [6]: Not Active; Activity [7]: Active; Activity [8]: Not Active; Activity [9]: Active; Activity [10]: Not Active; Activity [11]: Active; Activity [12]: Active
61.7	Active	Not Active	[N-]=[N+]=NCc1cc(CNCCOCCOc2ccc(-c3cc(=O)c4ccccc4o3)cc2)cc(N=[N+]=[N-])c1	Activity [2]: Active

Reference: ChEMBL document CHEMBL5338754, “Identification of Binding Sites in the Nucleotide-Binding Domain of P-Glycoprotein for a Potent and Nontoxic Modulator, the Amine-Containing Monomeric Flavonoid FM04” (J Med Chem, 2023)
